Laboratory results from patent US9974784B2, “Inhibitors of activin-like receptor kinases” (The Texas A & M University System, priority 2015, dated 2018).

Key:
BMP signaling = conditions: pharmacological inhibition of BMP signaling; cited from earlier work
ALK2 [1] = target: T1, ALK2 (Homo sapiens, UniProt Q04771); experiment: SDS and native polyacrylamide gel electrophoresis analysis of ALK2 destabilization; conditions: SDS-PAGE / gel electrophoresis, FIG. 8, increasing concentrations of test compound vs control compound
T1 sequence (Q04771 21-509): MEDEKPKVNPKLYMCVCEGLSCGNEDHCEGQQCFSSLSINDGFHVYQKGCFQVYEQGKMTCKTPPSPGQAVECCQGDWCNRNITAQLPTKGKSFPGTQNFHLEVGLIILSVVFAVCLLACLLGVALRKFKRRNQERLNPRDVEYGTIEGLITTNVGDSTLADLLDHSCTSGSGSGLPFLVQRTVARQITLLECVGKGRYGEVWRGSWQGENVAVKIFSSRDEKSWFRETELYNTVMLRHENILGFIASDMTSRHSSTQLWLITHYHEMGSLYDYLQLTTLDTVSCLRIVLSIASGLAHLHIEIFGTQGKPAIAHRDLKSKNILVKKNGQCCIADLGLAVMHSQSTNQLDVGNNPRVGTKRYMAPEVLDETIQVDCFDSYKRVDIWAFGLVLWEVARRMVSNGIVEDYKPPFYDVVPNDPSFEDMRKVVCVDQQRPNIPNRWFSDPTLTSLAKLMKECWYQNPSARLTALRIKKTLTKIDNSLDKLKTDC
Experimental: Destabilizing effects of a compound identified by a method of the claimed invention, were observed by SDS and native polyacrylamide gel electrophoresis analyses (FIG. 8), and were confirmed by monitoring protein unfolding with a hydrophobic fluoroprobe (SYPRO orange) in 96-well plate format with a quantitative PCR instrument (Thermofluor assay). The allosteric inhibitor shifted the melting temperature of Dorsomorphin-stabilized ALK2 from approximately 55° C. down to 35° C. in a concentration dependent manner that correlated with concentration dependent inhibition of ALK2 kinase activity.
The comparative stabilities of the kinase protein were tested at varying pH levels in the presence of compounds identified by the methods of the claimed invention. […] Thermofluor assays provide independent confirmation of the effect of decreasing pH on the stability (FIG. 10) and sensitivity to an allosteric destabilizer (FIG. 11) of the kinase protein. […] Hypoxic conditions typically occur in tissues that are faced with traumas such as those caused by surgery or injury.

ALK2 [2] = target: T1, ALK2; experiment: screening assay for compounds that bind an allosteric site of ALK2 and destabilize the protein
From the text: Screening assays were set up to identify compounds that were capable of binding to a specific location in ALK2. This location was a ring-shaped pocket that contains a single centrally located sidechain, that of a histidine in ALK1 and ALK2, and an aspartate in the other five receptor kinases of the family. Numerous compounds were docked in poses that wrap the scaffolds around the central “island” residue, with terminal groups oriented in a head-to-tail fashion. Covalent linkage of the juxtaposed groups to form macrocyclic compounds is likely feasible in many cases. Through reduction in the entropic cost of binding due to constraint of rotatable bonds, as well as other properties, macrocycles have become an attractive scaffold for medicinal chemists in modern drug discovery.
According to a further embodiment of the invention, a screening assay is carried out to identify compounds that bind to an allosteric site of ALK2 and cause destabilization of the protein.

destabilization of ALK-2 (ALK2 [2])	Structure (SMILES)	also measured
cause destabilization of ALK-2	Cc1nc(-c2cccc(S(=O)(=O)N3CCC(C(=O)NCCc4nc5ccccc5[nH]4)CC3)c2)no1 [compound 17, N-[2-(1H-1,3-benzodiazol-2-yl)ethyl]-1-[3-(5-methyl-1,2,4-oxadiazol-3-yl)benzenesulfonyl]piperidine-4-carboxamide]	
cause destabilization of ALK-2	Cc1nc(-c2cccc(S(=O)(=O)N3CCC(C(=O)Nc4cccc5c4CCCC5)CC3)c2)no1 [compound 19, 1-[3-(5-methyl-1,2,4-oxadiazol-3-yl)benzenesulfonyl]-N-(5,6,7,8-tetrahydronaphthalen-1-yl)piperidine-4-carboxamide]	
cause destabilization of ALK-2	Cc1nc(-c2cccc(N3CC(C(=O)N4CCN(Cc5ccc6c(c5)OCO6)CC4)CC3=O)c2)no1 (centres unmarked) [compound 20, 4-[4-(1,3-benzodioxol-5-ylmethyl)piperazine-1-carbonyl]-1-[3-(5-methyl-1,2,4-oxadiazol-3-yl)phenyl]pyrrolidin-2-one]	
cause destabilization of ALK-2	Cc1cccc(-c2cccc(NC(=O)C3CCCN(C(=O)c4ccnc(N)c4)C3)c2)c1 (centres unmarked) [compound 28, 1-(2-aminoisonicotinoyl)-N-(3′-methyl-3-biphenylyl)-3-piperidinecarboxamide]	

The remaining lines, values behind:

Structure (SMILES)	destabilization of ALK-2 (ALK2 [2])	also measured
c1ccc2c(-c3cnn4cc(-c5ccc(N6CCNCC6)cc5)cnc34)ccnc2c1 [LDN-193189]		effect on muscle (BMP signaling): leads to muscle wasting or cachexia
Cc1onc(-c2ccccc2)c1C(=O)NCC1Cc2cccc(-c3ccccn3)c2O1 (centres unmarked) [compound 8, 5-methyl-3-phenyl-N-{[7-(2-pyridinyl)-2,3-dihydro-1-benzofuran-2-yl]methyl}-4-isoxazolecarboxamide]		destabilization of ALK2 receptor kinase (ALK2 [1]): destabilization of ALK2 receptor kinase
Cc1cc(NS(=O)(=O)c2ccc3c(c2)C2C4CCC(C4)C2C(c2cccc(C(=O)O)c2)N3)no1 (centres unmarked) [compound 14, 3-{2-[(5-methyl-1,2-oxazol-3-yl)sulfamoyl]-5,6,6a,7,8,9,10,10a-octahydro-7,10-methanophenanthridin-6-yl}benzoic acid]	cause destabilization of ALK-2	
Cc1nc(NS(=O)(=O)c2ccc3c(c2)C2C4CCC(C4)C2C(c2cccc(C(=O)O)c2)N3)oc1C (centres unmarked) [compound 24, 3-{2-[(4,5-dimethyl-1,3-oxazol-2-yl)sulfamoyl]-5,6,6a,7,8,9,10,10a-octahydro-7,10-methanophenanthridin-6-yl}benzoic acid]	cause destabilization of ALK-2	
